Experiment [1] has as its system WM3629 cells. The experiment is described as follows: WM3629 Cell Proliferation Assay (1). It is filed as cell-based. How it is done:
WM3629 Cell Proliferation Assay (1)
WM3629 cells (#WM3629-01-0001) are obtained from Rockland Immunochemicals Inc (Gilbertsville, PA). Briefly, cells were grown in MCDB 153 medium (Sigma, #M7403, St. Louis, MO) supplemented with 20% Leibovitz's L-15 (ThermoFisher #11415-064, Waltham, MA), 2% heat inactivated fetal bovine serum (ThermoFisher, #A3840001, Waltham, MA), 5 μg/mL Insulin (Bovine Pancreas) (Sigma, #10516, St. Louis, MO), 1.68 mM Calcium Chloride (Sigma, #C-34006, St. Louis, MO) and 1% Penicillin/Streptomycin/L-Glutamine (ThermoFisher #10378016, Waltham, MA) at 37° C., 5% CO2, and 95% humidity. Cells are expanded until reaching 70-95% confluency at which point they are subcultured or harvested for assay use. A serial dilution of test compound is dispensed into a 96-well black clear bottom plate in triplicate. Four thousand five hundred cells are added per well in 200 μL complete growth medium in the 96-well plate. Plates are incubated for 67-72 hours at 37° C., 5% CO2, and 95% humidity. At the end of the incubation, 40 μL of a 440 μM solution of resazurin (Sigma, #199303, St. Louis, MO) in PBS is added to each well of the plate and plates are incubated for an additional 6-7 hours at 37° C., 5% CO2, and 95% humidity. Plates are read on a Synergy2 or equivalent reader (Biotek, Winooski VT) using an excitation of 540 nm and an emission of 600 nm. Data is analyzed using Prism software (GraphPad, San Diego, CA) to calculate IC50 values.

Experiment [2] concerns Miapaca-2 cells. The experiment is described as follows: MiaPaca-2 Combination Cell proliferation Assay (1) with cobimetinib. It is filed as cell-based. The conditions noted are these: MiaPaca-2 cell proliferation, read-out: MiaPaca-2 Combo (1) IC50.

Some results are limits rather than exact numbers.

The IC50 is the midpoint of a concentration-inhibition curve. Regarding `COC(=O)Nc1cc(-c2cc(-c3cc(NC(=O)c4ccnc(C(C)(C)C#N)c4)c(F)cc3C)ccn2)ccn1` [Example 308], the IC50 in experiment [1] and in experiment [2] was at most 0.1 µM each time.

Turning to `COC(=O)Nc1cc(-c2nccc(-c3cc(NC(=O)c4ccnc(C(C)(C)F)c4)c(F)cc3C)n2)ccn1` [Example 304], the IC50 in experiment [1] and in experiment [2] was at most 0.1 µM in each case. On to `CC(=O)Nc1cc(-c2cccc(-c3cc(NC(=O)c4ccnc(C(F)(F)F)c4)ccc3C)c2)ccn1` [Example 28], for which the IC50 in experiment [2] is at most 0.1 µM. `COC(=O)Nc1cc(-c2cc(-c3cc(NC(=O)c4ccnc(C(C)(C)F)c4)c(F)cc3C)ccn2)ccn1` [Example 302]: the IC50 in experiment [1] and in experiment [2] was at most 0.1 µM each time. Consider `CC(=O)Nc1cc(-c2cccc(-c3cc(NC(=O)c4ccnc(C(F)(F)F)c4)ccc3C)c2)ncn1` [Example 30], for which the IC50 in experiment [2] is at most 0.1 µM. On the same count and under the same terms, under `CC(=O)Nc1cc(-c2cc(-c3cc(C(=O)Nc4ccnc(C(F)(F)F)c4)ccc3C)ccn2)ccn1` [Example 26] stands at most 0.1 µM. On to `CNC(=O)c1cc(-c2cnnc(-c3cc(NC(=O)c4ccnc(C(F)F)c4)ccc3C)c2)ccn1` [Example 327], for which the IC50 in experiment [1] was in the range of 1 to 10 µM. On to `CNC(=O)c1cc(-c2cc(-c3cc(NC(=O)c4ccnc(C(F)(F)F)c4)ccc3C)cc(C3CC3)n2)ccn1` [Example 27], for which, in experiment [2], the IC50 fell in the range of 0.5 to 1 µM.

In the case of `CNC(=O)c1cc(-c2cnnc(-c3cc(NC(=O)c4ccnc(C(C)(C)F)c4)ccc3C)c2)ccn1` [Example 325], the IC50 in experiment [1] is at most 0.1 µM. For `Cc1ccc(NC(=O)c2ccnc(C(C)(C)F)c2)cc1-c1cc(-c2ccnc(NC(=O)C3CC3)c2)cnn1` [Example 315], the IC50 in experiment [1] and in experiment [2] was at most 0.1 µM in each case.

With `CNC(=O)c1cc(-c2cc(-c3cc(NC(=O)COCC4CC4)ccc3C)ccn2)ccn1` [Example 358], the IC50 in experiment [2] was 1 to 10 µM. The same measure, in the same setting: under `CNC(=O)c1cc(-c2nccc(-c3cc(NC(=O)c4ccnc(C(F)(F)F)c4)ccc3C)n2)ccn1` [Example 25] stands at most 0.1 µM; under `Cc1ccc(NC(=O)c2ccnc(C(C)(C)C#N)c2)cc1-c1ccnc(-c2ccnc3c2CC(=O)N3)c1` [Example 23], 0.1 to 0.5 µM; under `COC(C)(C)c1cc(C(=O)Nc2ccc(C)c(-c3cc(-c4ccnc(NC(=O)C5CC5)c4)cnn3)c2)ccn1` [Example 319], at most 0.1 µM. On to `COC(=O)Nc1cc(-c2nccc(-c3cc(NC(=O)c4ccnc(C(C)(C)C#N)c4)c(F)cc3C)n2)ccn1` [Example 303], for which the IC50 in experiment [1] and in experiment [2] was at most 0.1 µM each time. Take `CC(=O)Nc1cc(-c2nccc(-c3cc(NC(=O)c4ccnc(C(F)(F)F)c4)ccc3C)n2)ccn1` [Example 24]: the 50% inhibitory concentration (IC50) in experiment [2] is at most 0.1 µM. Same read-out and setting: with `CC(=O)Nc1cc(-c2cncc(-c3cc(NC(=O)c4ccnc(C(F)(F)F)c4)ccc3C)n2)ccn1` [Example 29] the figure was at most 0.1 µM. Regarding `Cc1ccc(NC(=O)c2cnn(C(C)(C)C)c2)cc1-c1cc(-c2ccnc(NC(=O)C3CC3)c2)cnn1` [Example 321], the IC50 in experiment [1] is at most 0.1 µM. `COC(=O)Nc1cc(-c2cccc(-c3cc(NC(=O)c4ccnc(C(C)(C)C#N)c4)cnc3C)c2)ccn1` [Example 282]: the IC50 in experiment [2] is at most 0.1 µM. The same measure, in the same setting: with `COC(=O)Nc1cc(-c2cc(-c3cc(NC(=O)c4ccnc(C(C)(C)C#N)c4)cnc3C)ccn2)ccn1` [Example 297] the figure was at most 0.1 µM.
